The values that follow come from patent US20200008395A1, “METHOD OF USING HUMAN EXCREMENT AND SECRETIONS FOR EARLY DETECTION OF PARKINSON'S DISEASE” (NEURRX, SPC, priority 2017, published 2020).

The nature of test [1]: Regression model of nutritional supplements and PD progression (PRO-PD score). It is filed as in vivo, human. Conditions: positive report of consistently using supplement over the previous 6 months, adjusted for years since diagnosis; for Mean change in PRO-PD score (SE)*: age, and gender; for Mean change in PRO-PD score (SE)**: age, gender, and income. From the text: When the diagnosis comes 10-15 years or more into the disease, the contribution or effectiveness of a disease-modifying therapy is diminished. Conversely, early detection and intervention by disease-modifying therapies can reduce rate of PD progression or delay disease onset. […] As used herein, PRO-PD is the Patient Reported Outcomes in Parkinson's Disease rating scale, which is used to describe PD disease severity among individuals with a clinical diagnosis of PD.
Certain foods and supplements are known to be associated with different rates of PD progression.

The conditions of test [2]: supplements / pharmaceuticals said to have been shown to slow or reduce progression; cited from earlier work.

`CN1c2c(nc(N)[nH]c2=O)NCC1CNc1ccc(C(=O)N[C@@H](CCC(=O)O)C(=O)O)cc1` (stereo partly drawn) [5-Methyltetrahydrofolate (5-MTHF), 5-Methyltetrahydrofolate]: in test [1], the “Mean change in PRO-PD score (SE)*” value is reported as −17.1 and the “Mean change in PRO-PD score (SE)**” value is −25.1.
Consider `COC1=C(OC)C(=O)C(C/C=C(\C)CC/C=C(\C)CC/C=C(\C)CC/C=C(\C)CC/C=C(\C)CC/C=C(\C)CC/C=C(\C)CC/C=C(\C)CC/C=C(\C)CCC=C(C)C)=C(C)C1=O` [CoQ10, coenzyme Q-10], for which the “Effect on PD progression (statement in words)” value (from here on “Effect on PD progression”) in test [2] is recorded as “slow the progression of PD”.
As to `[Ca+2]` [Calcium], in test [1], the “Mean change in PRO-PD score (SE)*” value was −6.2 and the “Mean change in PRO-PD score (SE)**” value stood at 12.5.
Take `C[C@]12CC[C@H](O)CC1=CC[C@@H]1[C@@H]2CC[C@]2(C)C(=O)CC[C@@H]12` [DHEA, dehydroepiandrosterone]: the “Effect on PD progression” value in test [2] is listed as “slow the progression of PD”.
Regarding `NC(=O)C1=CN([C@@H]2O[C@H](COP(=O)(O)OP(=O)(O)OC[C@H]3O[C@@H](n4cnc5c(N)ncnc54)[C@H](O)[C@@H]3O)[C@@H](O)[C@H]2O)C=CC1` [NADH], in test [1], the “Mean change in PRO-PD score (SE)*” value is listed as −9.7 and the “Mean change in PRO-PD score (SE)**” value is −25.2.
Vitamin D: in test [1], the “Mean change in PRO-PD score (SE)*” value is on record as −26.1 and the “Mean change in PRO-PD score (SE)**” value is listed as −3.6.
In the case of `N[C@@H](Cc1ccc(O)c(O)c1)C(=O)O` [levodopa], the “Effect on PD progression” value in test [2] is reported as “reduce the rate of progression”.
With `O=C1CC[C@@]2(O)[C@H]3Cc4ccc(O)c5c4[C@@]2(CCN3CC2CC2)[C@H]1O5` [Low-dose naltrexone, naltrexone], in test [2], the “Effect on PD progression” value is “reduce the rate of progression”.
Regarding `N[C@@H](CCC(=O)N[C@@H](CS)C(=O)NCC(=O)O)C(=O)O` [Glutathione, oral, glutathione], the “Effect on PD progression” value in test [2] was “slow the progression of PD”.
With `C#CCN[C@@H]1CCc2ccccc21` [rasagiline], the “Effect on PD progression” value in test [2] is given as “reduce the rate of progression”.
With `C#CCN(C)[C@H](C)Cc1ccccc1` [selegeline], the “Effect on PD progression” value in test [2] is on record as “reduce the rate of progression”.
